Columns and labels:
[1] = Dynamic oxidation test by DSC (differential scanning calorimeter) under oxygen flow; assay type: physicochemical; conditions: oxygen flow 50 ml/min; vitamin A acetate with 20% by weight antioxidant; higher temperature = higher antioxidant power
Method: (§1) The antioxidant power measurement methods used in the examples for antioxidant and vitamin A (as vitamin A acetate) mixtures are shown below.
1) Dynamic Oxidation Test by DSC (Differential Scanning Calorimeter)
It is carried out under oxygen flow (50 ml/min) then the temperature is raised to a temperature above the melting point of vitamin A (i.e. above 60° C.).
The oxidation corresponds to an exothermic phenomenon which occurs at a given temperature. For BHT, it occurs at 153° C. The higher the oxidation temperature, the higher the antioxidant power.
All the samples having a temperature greater than or equal to 120° C. will be retained for a much longer Oxipres test.

[2] = Oxipres test (oxygen consumption under O2 pressure); assay type: physicochemical
Excerpt: as §1
This test consists of putting the samples under O2 pressure at a given temperature. The method allows determining the kinetics of oxygen consumption, expressed by a variation of O2 (ΔP in bars), this variation being all the smaller as the antioxidant power is high.

DSC DYN Onset (oxidation temperature) [1] | Oxipres Time ([2]; under O2 pressure at a given temperature) | Oxipres ΔP (variation of O2) ([2]; under O2 pressure, smaller ΔP = higher antioxidant power) | SMILES
153 °C |  |  | Cc1cc(C(C)(C)C)c(O)c(C(C)(C)C)c1 [BHT, 2,6-di-tert-butyl-4-methyl-phenol, reference compound]
60 °C | 0 h | 5.0 Bars | CC(=O)OC/C=C(C)/C=C/C=C(C)/C=C/C1=C(C)CCCC1(C)C [Sample 1, vitamin A acetate]

— US20260165983A1, “VITAMIN A FORMULATION” (ADISSEO FRANCE S.A.S., priority 2020, published 2026)
